This passage reports PDH % activation and PKA % inhibition results from patent EP1409500B1, “ALKYLATED INOSITOLGLYCANS AND THEIR USES” (Rodaris Pharmaceuticals Limited, priority 2000, dated 2001).

In one assay the test system is PDH phosphatase. The assay can be described thus: PDH phosphatase activation assay. The assay is classed as biochemical. Particulars: 100µM. An excerpt: (§1) Methods for obtaining A-type and P-type mediators are set out in Caro et al, 1997, and in WO98/11116 and WO98/11117. Protocols for determining characteristic IPG biological activities such as PDH activation, PKA inhibition, acetylCoA activation, fructose-1,6-bis-phosphatase activity and lipogenesis are well known in the art, e.g. as described in Caro et al^[14].
(§2) The compounds of the invention can be tested for one or more the characteristic IPG-P and/or IPG-A activities mentioned above to determine whether they will be suitable for use a IPG mimetics or antagonists. Preferred assays measure the effect of the compounds on PDH phosphatase, PKA or lipogenesis. Protocols for these assays are provided in Caro et al ^[14]. The compounds can also be tested to determine whether they activate or inhibit other enzymes involved in insulin signalling mechanism, such as glucose-6-phosphatase.
In particular, preferred compounds having 1,6 linkages are good activators of PDH phosphatase activity.

In a further assay the test system is PKA. As to the kind of experiment: PKA inhibition assay. The assay is classed as biochemical.
Text: as §1, §2

The structures appear in SMILES notation.

The molecule `CO[C@H]1[C@H](O)[C@@H](O)[C@@H](O[C@@H]2O[C@H](CO)[C@@H](O)[C@H](O)[C@H]2N)[C@H](O)[C@@H]1O` [RGL1015, O-(2-amino-2-deoxy-D-glucopyranosyl)-β(1,6)-D-3-O-methyl-chiro-inositol.] showed a PDH % activation in the assay with PDH phosphatase of 38%. Besides, the figures for the PKA % inhibition in the assay on PKA (0.1µM) and in the assay with PKA (1µM) were 14% and 15%, respectively.
In the assay with PDH phosphatase, `CO[C@H]1[C@H](O)[C@@H](O)[C@@H](O[C@H]2O[C@H](CO)[C@@H](O)[C@H](O)[C@H]2N)[C@H](O)[C@@H]1O` [RGL1024, O-(2-amino-2-deoxy-D-glucopyranosyl)-α(1,6)-D-3-O-methyl-chiro-inositol.] returned a PDH % activation of 65%. Further, the PKA % inhibition in the assay on PKA (0.1µM) is 17%; in the assay with PKA (1µM) it was 34%; with PKA (10µM), 2%.
`CO[C@H]1[C@H](O)[C@@H](O)[C@@H](O[C@H]2O[C@H](CO)[C@H](O)[C@H](O)[C@H]2N)[C@H](O)[C@@H]1O` [RGL1025, O-(2-amino-2deoxy-D-galactopyranosyl)-α(1,6)-D-3-O-methyl-chiro-inositol.]: in the assay with PDH phosphatase, the PDH % activation worked out at 17%. Besides, the values for the PKA % inhibition in the assay with PKA (0.1µM) and in the assay on PKA (1µM) were 48% and -13%, respectively.
